ChEMBL document CHEMBL1152642, “Semisynthetic latrunculin B analogs: studies of actin docking support a proposed mechanism for latrunculin bioactivity” (Bioorg Med Chem, 2009)
The source made the active and inactive calls. No cut-off for these calls is given here.

These compounds were tested on Aspergillus flavus (assay: Antimicrobial activity against Aspergillus flavus NRRL 501 by twofold dilution method).
Type: functional, organism-based

SMILES	Activity
CCCCCCN1C(=O)SC[C@H]1[C@@]1(OC)C[C@H]2C[C@@H](CC[C@H](C)/C=C\CC/C(C)=C\C(=O)O2)O1	inactive
C/C1=C/C(=O)O[C@@H]2CC(CC[C@H](C)/C=C\C=C\CC1)O[C@@](O)([C@H]1CSC(=O)N1)C2	Active
C/C1=C/C(=O)O[C@@H]2C[C@@H](CC[C@H](C)/C=C\CC1)O[C@@](O)([C@H]1CSC(=O)N1)C2	Active
CCCCCN1C(=O)SC[C@H]1[C@@]1(OC)C[C@H]2C[C@@H](CC[C@H](C)/C=C\CC/C(C)=C\C(=O)O2)O1	inactive
CO[C@]1([C@@H]2CSC(=O)N2)C[C@H]2C[C@@H](CC[C@H](C)/C=C\CC/C(C)=C\C(=O)O2)O1	inactive
CCCCCCCCN1C(=O)SC[C@H]1[C@@]1(OC)C[C@H]2C[C@@H](CC[C@H](C)/C=C\CC/C(C)=C\C(=O)O2)O1	inactive
CCCCCCCCCCN1C(=O)SC[C@H]1[C@@]1(OC)C[C@H]2C[C@@H](CC[C@H](C)/C=C\CC/C(C)=C\C(=O)O2)O1	inactive
CCCCCCCCCCN1C(=O)SC[C@H]1[C@@]1(O)C[C@H]2C[C@@H](CC[C@H](C)/C=C\CC/C(C)=C\C(=O)O2)O1	inactive
CCCCCCCCCN1C(=O)SC[C@H]1[C@@]1(OC)C[C@H]2C[C@@H](CC[C@H](C)/C=C\CC/C(C)=C\C(=O)O2)O1	inactive
CO[C@]1([C@@H]2CSC(=O)N2C)C[C@H]2C[C@@H](CC[C@H](C)/C=C\CC/C(C)=C\C(=O)O2)O1	inactive
C/C1=C/C(=O)O[C@@H]2C[C@@H](CC[C@H](C)/C=C\C=C\CC1)O[C@@](O)([C@@H]1CSC(=O)N1)C2	Active
C/C1=C/C(=O)O[C@@H]2C[C@@H](CC[C@H](C)/C=C\CC1)O[C@@](O)([C@@H]1CSC(=O)N1)C2	Active

These compounds were tested on Saccharomyces cerevisiae (assay: Antimicrobial activity against Saccharomyces cerevisiae NRRL Y2034 by twofold dilution method).
Type: functional, organism-based

SMILES	Activity
CCCCCCN1C(=O)SC[C@H]1[C@@]1(OC)C[C@H]2C[C@@H](CC[C@H](C)/C=C\CC/C(C)=C\C(=O)O2)O1	inactive
C/C1=C/C(=O)O[C@@H]2CC(CC[C@H](C)/C=C\C=C\CC1)O[C@@](O)([C@H]1CSC(=O)N1)C2	Active
C/C1=C/C(=O)O[C@@H]2C[C@@H](CC[C@H](C)/C=C\CC1)O[C@@](O)([C@H]1CSC(=O)N1)C2	Active
CCCCCN1C(=O)SC[C@H]1[C@@]1(OC)C[C@H]2C[C@@H](CC[C@H](C)/C=C\CC/C(C)=C\C(=O)O2)O1	inactive
CO[C@]1([C@@H]2CSC(=O)N2)C[C@H]2C[C@@H](CC[C@H](C)/C=C\CC/C(C)=C\C(=O)O2)O1	inactive
CCCCCCCCN1C(=O)SC[C@H]1[C@@]1(OC)C[C@H]2C[C@@H](CC[C@H](C)/C=C\CC/C(C)=C\C(=O)O2)O1	inactive
CCCCCCCCCCN1C(=O)SC[C@H]1[C@@]1(OC)C[C@H]2C[C@@H](CC[C@H](C)/C=C\CC/C(C)=C\C(=O)O2)O1	inactive
CCCCCCCCCCN1C(=O)SC[C@H]1[C@@]1(O)C[C@H]2C[C@@H](CC[C@H](C)/C=C\CC/C(C)=C\C(=O)O2)O1	inactive
CCCCCCCCCN1C(=O)SC[C@H]1[C@@]1(OC)C[C@H]2C[C@@H](CC[C@H](C)/C=C\CC/C(C)=C\C(=O)O2)O1	inactive
CO[C@]1([C@@H]2CSC(=O)N2C)C[C@H]2C[C@@H](CC[C@H](C)/C=C\CC/C(C)=C\C(=O)O2)O1	inactive
C/C1=C/C(=O)O[C@@H]2C[C@@H](CC[C@H](C)/C=C\C=C\CC1)O[C@@](O)([C@@H]1CSC(=O)N1)C2	Active
C/C1=C/C(=O)O[C@@H]2C[C@@H](CC[C@H](C)/C=C\CC1)O[C@@](O)([C@@H]1CSC(=O)N1)C2	Active

What follows are compounds tested on Candida albicans (assay: Antimicrobial activity against Candida albicans by twofold dilution method).
Type: functional, organism-based

SMILES	Activity
CCCCCCN1C(=O)SC[C@H]1[C@@]1(OC)C[C@H]2C[C@@H](CC[C@H](C)/C=C\CC/C(C)=C\C(=O)O2)O1	inactive
C/C1=C/C(=O)O[C@@H]2CC(CC[C@H](C)/C=C\C=C\CC1)O[C@@](O)([C@H]1CSC(=O)N1)C2	Active
C/C1=C/C(=O)O[C@@H]2C[C@@H](CC[C@H](C)/C=C\CC1)O[C@@](O)([C@H]1CSC(=O)N1)C2	Active
CCCCCN1C(=O)SC[C@H]1[C@@]1(OC)C[C@H]2C[C@@H](CC[C@H](C)/C=C\CC/C(C)=C\C(=O)O2)O1	inactive
CO[C@]1([C@@H]2CSC(=O)N2)C[C@H]2C[C@@H](CC[C@H](C)/C=C\CC/C(C)=C\C(=O)O2)O1	inactive
CCCCCCCCN1C(=O)SC[C@H]1[C@@]1(OC)C[C@H]2C[C@@H](CC[C@H](C)/C=C\CC/C(C)=C\C(=O)O2)O1	inactive
CCCCCCCCCCN1C(=O)SC[C@H]1[C@@]1(OC)C[C@H]2C[C@@H](CC[C@H](C)/C=C\CC/C(C)=C\C(=O)O2)O1	inactive
CCCCCCCCCCN1C(=O)SC[C@H]1[C@@]1(O)C[C@H]2C[C@@H](CC[C@H](C)/C=C\CC/C(C)=C\C(=O)O2)O1	inactive
CCCCCCCCCN1C(=O)SC[C@H]1[C@@]1(OC)C[C@H]2C[C@@H](CC[C@H](C)/C=C\CC/C(C)=C\C(=O)O2)O1	inactive
CO[C@]1([C@@H]2CSC(=O)N2C)C[C@H]2C[C@@H](CC[C@H](C)/C=C\CC/C(C)=C\C(=O)O2)O1	inactive
C/C1=C/C(=O)O[C@@H]2C[C@@H](CC[C@H](C)/C=C\C=C\CC1)O[C@@](O)([C@@H]1CSC(=O)N1)C2	Active
C/C1=C/C(=O)O[C@@H]2C[C@@H](CC[C@H](C)/C=C\CC1)O[C@@](O)([C@@H]1CSC(=O)N1)C2	Active
